# Source: publication PMC9533837 (Antiviral Research, 2003)
# Where two headings read alike, the source gives them in different places.
# What was measured:
# VAR isolate V70-222 = test: organism not typed; type: cell-based, variola; conditions: Vero, read-out: IC50, VAR isolate V70-222
# VAR isolate Somalia = test: organism not typed; type: cell-based, variola; conditions: Vero, read-out: IC50, VAR isolate Somalia
# VAR isolate V73-225 = test: organism not typed; type: cell-based, variola; conditions: Vero, read-out: IC50, VAR isolate V73-225
# CPX = conditions: cited from earlier work
# VAR isolate Iran 2602 = test: organism not typed; type: cell-based, variola; conditions: Vero, read-out: IC50, VAR isolate Iran 2602
# CPX Brighton [1] = test: organism not typed; type: cell-based, cowpox; conditions: for IC50: LLC-MK2, read-out: IC50 CPX LLC-MK2
# VAR isolate Eth17 = test: organism not typed; type: cell-based, variola; conditions: Vero, read-out: IC50, VAR isolate Eth17
# VAC Copenhagen [2] = test: microbe, parasite or virus in culture; type: cell-based, vaccinia virus; conditions: for IC50: Orthopoxvirus vaccinia, Vero, read-out: IC50 VAC Vero
# VAR isolate Horn = test: organism not typed; type: cell-based, variola; conditions: Vero, read-out: IC50, VAR isolate Horn
# LLC-MK2 cells = conditions: rhesus monkey
# VAR isolate Hinden = test: organism not typed; type: cell-based, variola; conditions: Vero, read-out: IC50, VAR isolate Hinden
# VAR isolate Harper = test: organism not typed; type: cell-based, variola; conditions: Vero, read-out: IC50, VAR isolate Harper
# VAR isolate 102 = test: organism not typed; type: cell-based, variola; conditions: Vero, read-out: IC50, VAR isolate 102
# all VAR isolates tested = test: organism not typed; type: cell-based, variola; conditions: Vero, read-out: IC50, VAR mean
# [3] = tested on: VAR-YAM (1946 Japan Yamada isolate of VAR major); test: organism not typed; type: cell-based, variola major; conditions: for IC50: LLC-MK2, read-out: IC50 VAR-YAM LLC-MK2
# VAR isolate Heidelberg = test: organism not typed; type: cell-based, variola; conditions: Vero, read-out: IC50, VAR isolate Heidelberg
# [4] = tested on: VAR-GAR (1966 Brazil Garcia isolate of VAR minor); test: organism not typed; type: cell-based, variola minor; conditions: for IC50: Vero
# VAR isolate Minn124 = test: organism not typed; type: cell-based, variola minor; conditions: Vero, read-out: IC50, VAR isolate Minn124
# [5] = tested on: MPX Zaire (V79-1-005-Scab); test: organism not typed; type: cell-based, monkeypox; conditions: for IC50: LLC-MK2, read-out: IC50 MPX LLC-MK2
# VAR isolate Jee = test: organism not typed; type: cell-based, variola; conditions: Vero, read-out: IC50, VAR isolate Jee
# VAR isolate 7124 = test: organism not typed; type: cell-based, variola; conditions: Vero, read-out: IC50, VAR isolate 7124
# [6] = tested on: orthopoxviruses (VAR-BSH, VAR-YAM, VAR-GAR, MPX, CPX, VAC); test: organism not typed; type: cell-based
# [7] = tested on: MPX Zaire (V79-1-005-Scab); test: organism not typed; type: cell-based, monkeypox; conditions: for IC50: Vero
# Vero cells = conditions: African green monkey
# [8] = tested on: VAR-BSH (1975 Bangladesh isolate of VAR major); test: organism not typed; type: cell-based, variola major; conditions: for IC50: LLC-MK2, read-out: IC50 VAR-BSH LLC-MK2
# VAC = conditions: cited from earlier work
# VAR isolate Higgins = test: organism not typed; type: cell-based, variola; conditions: Vero, read-out: IC50, VAR isolate Higgins
# [9] = tested on: VAR-BSH (1975 Bangladesh isolate of VAR major); test: organism not typed; type: cell-based, variola major; conditions: for IC50: Vero
# VAR isolate Shahzaman = test: organism not typed; type: cell-based, variola; conditions: Vero, read-out: IC50, VAR isolate Shahzaman
# VAR isolate V73-175 = test: organism not typed; type: cell-based, variola; conditions: Vero, read-out: IC50, VAR isolate V73-175
# VAR isolate V72-119 = test: organism not typed; type: cell-based, variola; conditions: Vero, read-out: IC50, VAR isolate V72-119
# VAR isolate 7125 = test: organism not typed; type: cell-based, variola; conditions: Vero, read-out: IC50, VAR isolate 7125
# CPX Brighton [10] = test: organism not typed; type: cell-based, cowpox; conditions: for IC50: Vero
# VAR isolate Butler = test: organism not typed; type: cell-based, variola minor; conditions: Vero, read-out: IC50, VAR isolate Butler
# VAR isolate V77-1605 = test: organism not typed; type: cell-based, variola; conditions: Vero, read-out: IC50, VAR isolate V77-1605
# VAR isolate V70-46 = test: organism not typed; type: cell-based, variola; conditions: Vero, read-out: IC50, VAR isolate V70-46
# VAR isolate V74-227 = test: organism not typed; type: cell-based, variola; conditions: Vero, read-out: IC50, VAR isolate V74-227
# VAC Copenhagen [11] = test: microbe, parasite or virus in culture; type: cell-based, vaccinia virus; conditions: for IC50: Orthopoxvirus vaccinia, LLC-MK2, read-out: IC50 VAC LLC-MK2
# [12] = read-out: IC50, VAR isolate Garcia
# [13] = read-out: IC50, VAR isolate Bangladesh
compound,measurement,setting,value
"Nc1ccn(C[C@@H](CO)OCP(=O)(O)O)c(=O)n1 [Cidofovir, 1-[(S)-3-hydroxy-2-(phosphonomethoxy)-propyl]cytosine]",IC50,VAR isolate V70-222,12 µg/mL
same,IC50,VAR isolate Somalia,7 µg/mL
same,IC50,VAR isolate V73-225,5 µg/mL
same,"activity in vivo, CPX mouse model",CPX,active in vivo
same,IC50,VAR isolate Iran 2602,8 µg/mL
same,Therapeutic index (TI) CPX LLC-MK2,CPX Brighton [1],83.3
same,IC50,CPX Brighton [1],1.2 µg/mL
same,IC50,VAR isolate Eth17,11 µg/mL
same,Therapeutic index (TI) VAC Vero,VAC Copenhagen [2],12.3
same,IC50,VAC Copenhagen [2],8.1 µg/mL
same,IC50,VAR isolate Horn,11 µg/mL
same,Cytotoxicity TC50 LLC-MK2,LLC-MK2 cells,>100 µg/mL
same,IC50,VAR isolate Hinden,10 µg/mL
same,IC50,VAR isolate Harper,28 µg/mL
same,IC50,VAR isolate 102,23 µg/mL
same,IC50,all VAR isolates tested,12 ± 1 µg/mL
same,Therapeutic index (TI) VAR-YAM LLC-MK2,[3],37.0
same,IC50,[3],2.7 µg/mL
same,IC50,VAR isolate Heidelberg,15 µg/mL
same,Therapeutic index (TI) VAR-GAR Vero,[4],22.2
same,IC50,[4]; [12],7 µg/mL
same,IC50,[4]; read-out: IC50 VAR-GAR Vero,4.5 µg/mL
same,IC50,VAR isolate Minn124,5 µg/mL
same,Therapeutic index (TI) MPX LLC-MK2,[5],27.0
same,IC50,[5],3.7 µg/mL
same,IC50,VAR isolate Jee,10 µg/mL
same,IC50,VAR isolate 7124,20 µg/mL
same,TI against the panel of viruses,[6],18.2
same,IC50,[6]; read-out: mean IC50 against the panel of viruses,5.5 ± 0.95 µg/mL
same,Therapeutic index (TI) MPX Vero,[7],14.9
same,IC50,"[7]; read-out: IC50, MPX",11 µg/mL
same,IC50,[7]; read-out: IC50 MPX Vero,6.7 µg/mL
same,Cytotoxicity TC50 Vero,Vero cells,>100 µg/mL
same,Therapeutic index (TI) VAR-BSH LLC-MK2,[8],31.3
same,IC50,[8],3.2 µg/mL
same,inhibition of VAC replication in vitro,VAC,inhibit VAC replication in vitro
same,IC50,VAR isolate Higgins,14 µg/mL
same,Therapeutic index (TI) VAR-BSH Vero,[9],10.5
same,IC50,"[9]; 120 h, read-out: apparent IC50",10.9 µg/mL
same,IC50,[9]; [13],17 µg/mL
same,IC50,[9]; read-out: IC50 VAR-BSH Vero,9.5 µg/mL
same,IC50,VAR isolate Shahzaman,11 µg/mL
same,IC50,VAR isolate V73-175,12 µg/mL
same,IC50,VAR isolate V72-119,10 µg/mL
same,IC50,VAR isolate 7125,12 µg/mL
same,Therapeutic index (TI) CPX Vero,CPX Brighton [10],13.3
same,IC50,"CPX Brighton [10]; read-out: IC50, CPX",13 µg/mL
same,IC50,CPX Brighton [10]; read-out: IC50 CPX Vero,7.5 µg/mL
same,IC50,VAR isolate Butler,6 µg/mL
same,IC50,VAR isolate V77-1605,19 µg/mL
same,IC50,VAR isolate V70-46,7 µg/mL
same,IC50,VAR isolate V74-227,10 µg/mL
same,Therapeutic index (TI) VAC LLC-MK2,VAC Copenhagen [11],23.3
same,IC50,VAC Copenhagen [11],4.3 µg/mL
NC(=O)c1ncn([C@@H]2O[C@H](CO)[C@@H](O)[C@H]2O)n1 [Ribavirin],IC50,VAR isolate V70-222,221 µg/mL
same,IC50,VAR isolate Somalia,84 µg/mL
same,IC50,VAR isolate V73-225,26 µg/mL
same,protection of CPX-infected mice,"CPX; mouse, in vivo",can protect CPX-infected mice
same,IC50,VAR isolate Iran 2602,11 µg/mL
same,Therapeutic index (TI) CPX LLC-MK2,CPX Brighton [1],9.4
same,IC50,CPX Brighton [1],10.6 µg/mL
same,IC50,VAR isolate Eth17,61 µg/mL
same,Therapeutic index (TI) VAC Vero,VAC Copenhagen [2],1.0
same,IC50,VAC Copenhagen [2],> 100 µg/mL
same,IC50,VAR isolate Horn,28 µg/mL
same,Cytotoxicity TC50 LLC-MK2,LLC-MK2 cells,>100 µg/mL
same,IC50,VAR isolate Hinden,33 µg/mL
same,IC50,VAR isolate Harper,40 µg/mL
same,IC50,VAR isolate 102,110 µg/mL
same,IC50,all VAR isolates tested,50 ± 8 µg/mL
same,Therapeutic index (TI) VAR-YAM LLC-MK2,[3],29.4
same,IC50,[3],3.4 µg/mL
same,IC50,VAR isolate Heidelberg,43 µg/mL
same,Therapeutic index (TI) VAR-GAR Vero,[4],5.9
same,IC50,[4]; [12],39 µg/mL
same,IC50,[4]; read-out: IC50 VAR-GAR Vero,17 µg/mL
same,IC50,VAR isolate Minn124,32 µg/mL
same,Therapeutic index (TI) MPX LLC-MK2,[5],24.4
same,IC50,[5],4.1 µg/mL
same,IC50,VAR isolate Jee,47 µg/mL
same,IC50,VAR isolate 7124,36 µg/mL
same,IC50,"[6]; LLC-MK2, read-out: mean IC50 on LLC-MK2 cells",8 ± 3.4 µg/mL
same,IC50,"[6]; Vero, read-out: mean IC50 on Vero cells",31.3 ± 14.1 µg/mL
same,Therapeutic index (TI) MPX Vero,[7],16.9
same,IC50,"[7]; read-out: IC50, MPX",11 µg/mL
same,IC50,[7]; read-out: IC50 MPX Vero,5.9 µg/mL
same,Cytotoxicity TC50 Vero,Vero cells,>100 µg/mL
same,Therapeutic index (TI) VAR-BSH LLC-MK2,[8],47.6
same,IC50,[8],2.1 µg/mL
same,inhibition of VAC replication in vitro,VAC,inhibited VAC replication in vitro
same,IC50,VAR isolate Higgins,48 µg/mL
same,Therapeutic index (TI) VAR-BSH Vero,[9],5.4
same,IC50,[9]; [13],30 µg/mL
same,IC50,[9]; read-out: IC50 VAR-BSH Vero,18.4 µg/mL
same,IC50,VAR isolate Shahzaman,15 µg/mL
same,IC50,VAR isolate V73-175,17 µg/mL
same,IC50,VAR isolate V72-119,35 µg/mL
same,IC50,VAR isolate 7125,37 µg/mL
same,Therapeutic index (TI) CPX Vero,CPX Brighton [10],3.3
same,IC50,"CPX Brighton [10]; read-out: IC50, CPX",> 300 µg/mL
same,IC50,CPX Brighton [10]; read-out: IC50 CPX Vero,30.6 µg/mL
same,IC50,VAR isolate Butler,28 µg/mL
same,IC50,VAR isolate V77-1605,453 µg/mL
same,IC50,VAR isolate V70-46,45 µg/mL
same,IC50,VAR isolate V74-227,54 µg/mL
same,Therapeutic index (TI) VAC LLC-MK2,VAC Copenhagen [11],4.2
same,IC50,VAC Copenhagen [11],23.9 µg/mL
